Test [1] has as its system E. coli ATCC 25922. Description: MIC assay, CLSI broth microdilution, E. coli ATCC 25922 (AECO001). It is filed as cell-based. To be noted: for MIC: Escherichia coli. The essentials: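 Bacteria from overnight agar colonies, suspended in saline, added to serial two-fold dilutions in Mueller Hinton Broth at 5×10^5 CFU/mL final. Incubation 35° C., 20 hours, ambient air, per CLSI M7-A7 reference method.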
Background: In broth dilution the organism is exposed to a series of concentrations in liquid medium.

Test [2] relates to P. aeruginosa ATCC 27853. Briefly: MIC assay, CLSI broth microdilution, P. aeruginosa ATCC 27853 (APAE001). The format is cell-based. The following applies: for MIC: Pseudomonas aeruginosa. In outline:
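CLSI M7-A7 broth microdilution; 2-fold serial dilutions in Mueller Hinton Broth, 1:1 with inoculum; final 5×10^5 CFU/mL; 35° C., 20 h, ambient air. QC strains E. coli ATCC 25922, P. aeruginosa ATCC 27853, S. aureus ATCC 29213.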

For test [3], the system named is E. coli ATCC 25922. Briefly: murine septicemia model of infection, E. coli. To be noted: mice inoculated IP, single SC or IV dose 1 hour after challenge, mortality 7 days; ED50 values are mg/kg. The format is in vivo. As for the experimental part: (§1) Two models were run on each compound, using E. coli and P. aeruginosa QC bacterial strains. Both studies employed the same design. […] At 1 hour after bacterial challenge, the mice received a single SC or IV […] dose of vehicle or test substance to assess in vivo anti-infective activity. Mortality was recorded once daily for 7 days after bacterial inoculation.

In test [4] the test system is P. aeruginosa ATCC 27853. Briefly: murine septicemia model of infection, P. aeruginosa. It is filed as in vivo. To be noted: mice inoculated IP, single SC or IV dose 1 hour after challenge, mortality 7 days; ED50 values are mg/kg. How it is done: as §1
Setting [5] is: ATCC27853, Table 2, read-out: MIC P. aeruginosa.
Where [6] appears, read: AECO001 is ATCC25922, 35° C., 20 hours, read-out: MIC AECO001.
The mark [7] stands for this setting: APAE001 is ATCC27853, 35° C., 20 hours, read-out: MIC APAE001.
[8] abbreviates: ATCC25922, 20 h, read-out: MIC AECO001.
Setting [9] is: ATCC27853, 20 h, read-out: MIC APAE001.

Converted amounts (≈) assume the structure as drawn. Like-named read-outs stand apart in the source and are kept apart here.

A word on the MIC: it is the least concentration at which growth counts as inhibited. For `NCC[C@H](O)C(=O)N[C@@H]1C[C@H](N)[C@@H](O[C@H]2O[C@H](CN)[C@@H](O)[C@H](O)[C@H]2O)[C@H](O)[C@H]1O[C@H]1O[C@H](CO)[C@@H](O)[C@H](N)[C@H]1O` [Amikacin, amikacin, reference compound], the MIC in test [1] (ATCC25922, Table 2, read-out: MIC E. coli) lay within 1 to 16 µg/mL (≈ 1.71 to 27.3 µM); in test [2] (setting [5]), 1 to 16 µg/mL (≈ 1.71 to 27.3 µM). Further, the “ED50/MIC E. Coli” value in test [3] is reported as 1.5. The “ED50/MIC P. aeruginosa” value in test [4] is listed as 13.

For the compound `CN[C@@H]1[C@@H](O)[C@@H](O[C@@H]2[C@@H](O)[C@H](O[C@H]3OC(CNCCO)=CC[C@H]3N)[C@@H](N)C[C@H]2NC(=O)[C@@H](O)CCN)OC[C@]1(C)O` [Example 1, 6′-(2-Hydroxy-ethyl)-1-(4-amino-2(S)-hydroxy-butyryl)-sisomicin], the MIC in test [1] (setting [6]) is < 1 µg/mL; in test [2] (setting [5]), 1 to 16 µg/mL (≈ 1.69 to 27 µM); in test [2] (setting [7]) it was 1 to 16 µg/mL (≈ 1.69 to 27 µM). The “ED50/MIC E. Coli” value in test [3] is given as <2. Besides, the “ED50/MIC P. aeruginosa” value in test [4] is reported as 4.

As to `CN[C@@H]1[C@@H](O)[C@@H](O[C@@H]2[C@@H](O)[C@H](O[C@H]3OC(CNCC4CCNCC4)=CC[C@H]3N)[C@@H](N)C[C@H]2NC(=O)[C@@H](O)CN)OC[C@]1(C)O` [Example 15, 6′-(Methyl-piperidin-4-yl)-1-(3-amino-2(S)-hydroxy-propionyl)-sisomicin], the MIC in test [1] (setting [6]) was < 1 µg/mL; in test [2] (setting [5]), 1 to 16 µg/mL (≈ 1.58 to 25.3 µM); in test [2] (setting [7]), 1 to 16 µg/mL (≈ 1.58 to 25.3 µM). Moreover, in test [4], the “ED50/MIC P. aeruginosa” value worked out at 1.

Regarding `CN[C@@H]1[C@@H](O)[C@@H](O[C@@H]2[C@@H](O)[C@H](O[C@H]3OC(CNCCO)=CC[C@H]3N)[C@@H](N)C[C@H]2NC(=O)[C@@H](O)CN)OC[C@]1(C)O` [Example 16, 6′-(2-Hydroxy-ethyl)-1-(3-amino-2(S)-hydroxy-propionyl)-sisomicin], the MIC in test [1] (setting [6]) is < 1 µg/mL; in test [2] (setting [5]) it was 1 to 16 µg/mL (≈ 1.73 to 27.6 µM); in test [2] (setting [7]), 1 to 16 µg/mL (≈ 1.73 to 27.6 µM). For the same compound, the “ED50/MIC E. Coli” value in test [3] came out at 1. Further, the “ED50/MIC P. aeruginosa” value in test [4] was found to be 3.

Take `CN[C@@H]1[C@@H](O)[C@@H](O[C@@H]2[C@@H](O)[C@H](O[C@H]3OC(CNCCCN)=CC[C@H]3N)[C@@H](N)C[C@H]2NC(=O)[C@@H](O)CN)OC[C@]1(C)O` [Example 17, 6′-(3-Amino-propyl)-1-(3-amino-2(S)-hydroxy-propionyl)-sisomicin]: the MIC was < 1 µg/mL in test [1] (setting [6]), 1 to 16 µg/mL (≈ 1.69 to 27 µM) in test [2] (setting [5]) and 1 to 16 µg/mL (≈ 1.69 to 27 µM) in test [2] (setting [7]). Also, the “ED50/MIC E. Coli” value in test [3] was 1. Moreover, the “ED50/MIC P. aeruginosa” value in test [4] was 5.

For `CN[C@@H]1[C@@H](O)[C@@H](O[C@@H]2[C@@H](O)[C@H](O[C@H]3OC(CNCC(O)CN)=CC[C@H]3N)[C@@H](N)C[C@H]2NC(=O)[C@@H](O)CN)OC[C@]1(C)O` (stereo partly drawn) [Example 22, 6′-(3-Amino-2-hydroxy-propyl)-1-(3-amino-2(S)-hydroxy-propionyl)-sisomicin], the MIC in test [1] (setting [6]), in test [2] (setting [5]) and in test [2] (setting [7]) was 1 to 16 µg/mL (≈ 1.65 to 26.3 µM) throughout. Besides, in test [3], the “ED50/MIC E. Coli” value was 1. In addition, the “ED50/MIC P. aeruginosa” value in test [4] stood at 8.

`CN[C@@H]1[C@@H](O)[C@@H](O[C@@H]2[C@@H](O)[C@H](O[C@H]3OC(CNCCCN)=CC[C@H]3N)[C@@H](N)C[C@H]2NC(=O)C2(O)CNC2)OC[C@]1(C)O` [Example 57]: the MIC in test [1] (setting [6]), in test [2] (setting [5]) and in test [2] (setting [7]) was < 1 µg/mL throughout. Further, in test [3], the “ED50/MIC E. Coli” value is 2. For the same compound, the “ED50/MIC P. aeruginosa” value in test [4] came out at 14.

In the case of `CN[C@@H]1[C@@H](O)[C@@H](O[C@@H]2[C@@H](O)[C@H](O[C@H]3OC(CN)=CC[C@H]3NC3CNC3)[C@@H](N)C[C@H]2NC(=O)[C@@H](O)CCN)OC[C@]1(C)O` [Example 96, 2′-(Azetidin-3-yl)-1-(4-amino-2(S)-hydroxy-butyryl)-sisomicin], the minimum inhibitory concentration (MIC) in test [1] (setting [6]) was < 1 µg/mL; in test [2] (setting [5]) it was 1 to 16 µg/mL (≈ 1.66 to 26.5 µM); in test [2] (setting [7]) it was 1 to 16 µg/mL (≈ 1.66 to 26.5 µM). The “ED50/MIC P. aeruginosa” value in test [4] is reported as 3.

Regarding `CN[C@@H]1[C@@H](O)[C@@H](O[C@@H]2[C@@H](O)[C@H](O[C@H]3OC(CN)=CC[C@H]3NC(=N)N)[C@@H](N)C[C@H]2NC(=O)[C@@H](O)CCN)OC[C@]1(C)O` [Example 103, 2′-Guanidinium-1-(4-amino-2(S)-hydroxy-butyryl)-sisomicin], the MIC in test [1] (setting [6]), in test [2] (setting [5]) and in test [2] (setting [7]) was < 1 µg/mL in each case. In addition, the “ED50/MIC E. Coli” value in test [3] is recorded as 2. For the same compound, the “ED50/MIC P. aeruginosa” value in test [4] is reported as 6.

As for `CN[C@@H]1[C@@H](O)[C@@H](O[C@@H]2[C@@H](O)[C@H](O[C@H]3OC(CNC(=N)N)=CC[C@H]3NC(=N)N)[C@@H](N)C[C@H]2N)OC[C@]1(C)O` [Example 105, 6′,2′-bis-Guanidinium-sisomicin], the MIC in test [1] (setting [8]) and in test [2] (setting [9]) was > 16 µg/mL throughout.

On to `CN[C@@H]1[C@@H](O)[C@@H](O[C@@H]2[C@@H](O)[C@H](O[C@H]3OC(CNCCO)=CC[C@H]3NC(=N)N)[C@@H](N)C[C@H]2N)OC[C@]1(C)O` [Example 106, 6′-(2-Hydroxy-ethyl)-2′-guanidinium-sisomicin], for which the MIC in test [1] (setting [8]) was < 1 µg/mL; in test [2] (setting [9]), 1 to 16 µg/mL (≈ 1.87 to 30 µM).

As to `CN[C@@H]1[C@@H](O)[C@@H](O[C@@H]2[C@@H](O)[C@H](O[C@H]3OC(CNC[C@H]4C[C@H](N)C4)=CC[C@H]3NC(=N)N)[C@@H](N)C[C@H]2N)OC[C@]1(C)O` [Example 107, 6′-(Methyl-trans-3-amino-cyclobutyl)-2′-guanidinium-sisomicin], the MIC was 1 to 16 µg/mL (≈ 1.75 to 27.9 µM) in test [1] (setting [8]) and < 1 µg/mL in test [2] (setting [9]).

With `CNCC1=CC[C@@H](NC(=N)N)[C@@H](O[C@H]2[C@H](O)[C@@H](O[C@H]3OC[C@](C)(O)[C@H](NC)[C@H]3O)[C@H](N)C[C@@H]2N)O1` [Example 108, 6′-Methyl-2′-guanidinium-sisomicin], the MIC in test [1] (setting [8]) is < 1 µg/mL; in test [2] (setting [9]), 1 to 16 µg/mL (≈ 1.99 to 31.8 µM).

For the compound gentamicin [reference compound], in test [1] (Table 2), the “MIC E. coli” value was “A (MIC's of 1.0 μg/mL or less = A)”. For the same compound, the “MIC P. aeruginosa” value in test [2] (Table 2) is “A (MIC's of 1.0 μg/mL or less = A)”. Further, the “ED50/MIC E. Coli” value in test [3] was 2.4. Also, the “ED50/MIC P. aeruginosa” value in test [4] is 12.

The values above are taken from US11117915B2, “Antibacterial aminoglycoside analogs” (Cipla USA, Inc., priority 2007, dated 2021).
